Read-outs that look alike come from different tables or passages of the source.
Key:
[1] = system: L929 cells; experiment: L929 cell necroptosis assay (TNFa + zVAD, CellTiter-Glo recovery), functional murine RIP1 assay; format: cell-based; details: Mus musculus, L929, 18 h, read-out: L929-CTG-recovery, L929, TNFa + zVAD (IC50), L929 cells, zVAD-fmk, TNFa 2 ng/mL, 18 hours, CellTiter-Glo
How it was run: (§1)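 Human U937 cells (50K/well, 60 uM zVAD-fmk in plating medium) and murine L929 cells (10K/well, medium replaced with 40 uM zVAD-fmk) were pre-incubated with compound 1 h at 37 °C. TNFa was then added at a final 2 ng/mL. Viability by CellTiter-Glo luminescence after 18 h.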

[2] = system: U937 cells; experiment: U937 cell necroptosis assay (TNFa + zVAD, CellTiter-Glo recovery), functional human RIP1 assay; format: cell-based; details: Homo sapiens, U-937, 18 h, read-out: U937 Zvad TNF CTG Recovery, U937, TNFa + zVAD (IC50), U937 cells, zVAD-fmk, TNFa 2 ng/mL, 18 hours, CellTiter-Glo
How it was run: as §1

[3] = biological target: RIPK1 (Homo sapiens (Human), UniProt Q13546); experiment: biochemical; format: biochemical
RIPK1, sequence (Q13546 whole entry, species assumed): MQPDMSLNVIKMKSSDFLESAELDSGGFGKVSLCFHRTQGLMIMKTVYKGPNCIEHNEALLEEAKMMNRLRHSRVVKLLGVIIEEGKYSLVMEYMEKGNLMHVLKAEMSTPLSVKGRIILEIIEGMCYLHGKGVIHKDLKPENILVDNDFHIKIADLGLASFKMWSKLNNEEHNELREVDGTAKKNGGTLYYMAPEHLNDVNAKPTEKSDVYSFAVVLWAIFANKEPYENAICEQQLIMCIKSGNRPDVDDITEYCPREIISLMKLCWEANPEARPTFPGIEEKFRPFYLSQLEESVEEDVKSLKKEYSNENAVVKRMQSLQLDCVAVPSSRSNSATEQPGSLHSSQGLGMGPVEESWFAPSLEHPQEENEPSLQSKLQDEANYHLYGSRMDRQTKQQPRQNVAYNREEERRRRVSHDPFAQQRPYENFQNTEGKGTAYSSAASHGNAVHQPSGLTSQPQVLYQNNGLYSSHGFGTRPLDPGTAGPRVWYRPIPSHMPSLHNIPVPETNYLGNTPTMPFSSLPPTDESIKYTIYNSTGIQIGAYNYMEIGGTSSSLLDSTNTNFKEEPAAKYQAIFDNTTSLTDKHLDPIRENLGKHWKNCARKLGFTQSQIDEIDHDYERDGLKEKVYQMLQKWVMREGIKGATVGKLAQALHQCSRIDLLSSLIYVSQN
How it was run: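 ADP-Glo luminescent assay of RIPK1 at 31 ng/well in Tris-HCl pH 7.4 buffer with MgCl2, BSA, 100 μM DTT and 4 mM MnCl2; compounds run in duplicate. Kinase reaction 30 min at 30 °C, then ADP-Glo 40 min and detection reagent 30 min at room temperature; ADP formation read as luminescence.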

[4] = RIPK1 enzyme 31 ng/well, 30° C. for 30 minutes, luminescence, read-out: RIPK1 ADP-Glo Kinase (IC50)

| SMILES | IC50 [1] [mM] | IC50 [2] [µM] | IC50 [3] [nM] | IC50 [3, 4] [nM] |
| --- | --- | --- | --- | --- |
| O=C(N[C@H]1COc2ccc(N3CC4(CCOCC4)C3)cc2-n2ccnc21)c1n[nH]c(Cc2ccccc2)n1 [Compound I-87, (R)—N-(9-(7-Oxa-2-azaspiro[3.5]nonan-2-yl)-4,5-dihydrobenzo[b]imidazo[1,2-d][1,4]oxazepin-4-yl)-5-benzyl-1H-1,2,4-triazole-3-carboxamide] | 10 | 0.0156 | 68.2 |  |
| O=C(NC1CCc2ccc(CN3CCN(c4ccncc4)CC3)cc2-n2ccnc21)c1ncn(Cc2c(Cl)cccc2Cl)n1 (racemic) [Compound I-47, (±)-1-(2,6-Dichlorobenzyl)-N-(9-((4-(pyridin-4-yl)piperazin-1-yl)methyl)-5,6-dihydro-4H-benzo[f]imidazo[1,2-a]azepin-4-yl)-1H-1,2,4-triazole-3-carboxamide] | 0.0095 | 0.0257 |  | 87.3 |
| O=C(NC1CCc2ccccc2-n2c1nc(Cl)c2Cl)c1n[nH]c(Cc2ccccc2)n1 (racemic) [Compound I-80, (±)-5-Benzyl-N-(1,2-dichloro-5,6-dihydro-4H-benzo[f]imidazo[1,2-a]azepin-4-yl)-1H-1,2,4-triazole-3-carboxamide] | 10 | 83.4 |  | 1870 |
| O=C(N[C@H]1CSc2ccccc2-n2nnnc21)c1ncn(Cc2ccc(F)cc2)n1 [Compound I-22, (R)—N-(4,5-Dihydrobenzo[b]tetrazolo[1,5-d][1,4]thiazepin-4-yl)-1-(4-fluorobenzyl)-1H-1,2,4-triazole-3-carboxamide] | 0.00248 | 0.002 |  | 32.1 |
| O=C(NC1Cc2ccccc2-n2ccnc21)c1cc(Oc2ccccc2)ccn1 (racemic) [Compound I-67, (±)-N-(4,5-Dihydroimidazo[1,2-a]quinolin-4-yl)-4-phenoxypicolinamide] | 10 | 10000 |  | 11400 |
| O=C(NC1CCc2ccccc2-n2c1nc(Cl)c2Cl)c1ncn(Cc2c(Cl)cccc2Cl)n1 (racemic) [Compound I-73, (±)-N-(1,2-Dichloro-5,6-dihydro-4H-benzo[f]imidazo[1,2-a]azepin-4-yl)-1-(2,6-dichlorobenzyl)-1H-1,2,4-triazole-3-carboxamide] | 10 | 0.903 |  | 92.4 |
| O=C(NC1CCc2ccccc2-n2cnnc21)c1ncn(Cc2c(Cl)cccc2Cl)n1 (racemic) [Compound I-58, (±)-1-(2,6-Dichlorobenzyl)-N-(5,6-dihydro-4H-benzo[f][1,2,4]triazolo[4,3-a]azepin-4-yl)-1H-1,2,4-triazole-3-carboxamide] | 10 | 0.0743 |  | 57.3 |
| CC(C)(O)C#Cc1ccc2c(c1)-n1nnnc1[C@@H](NC(=O)c1n[nH]c(Cc3ccccc3)n1)CO2 [Compound I-69, (R)-5-Benzyl-N-(9-(3-hydroxy-3-methylbut-1-yn-1-yl)-4,5-dihydrobenzo[b]tetrazolo[1,5-d][1,4]oxazepin-4-yl)-1H-1,2,4-triazole-3-carboxamide] | 10 | 0.787 |  | 60.1 |
| O=C(NC1CCc2ccccc2-n2c(Cl)cnc21)c1ncn(Cc2c(Cl)cccc2Cl)n1 (racemic) [Compound I-74, (±)-N-(1-Chloro-5,6-dihydro-4H-benzo[f]imidazo[1,2-a]azepin-4-yl)-1-(2,6-dichlorobenzyl)-1H-1,2,4-triazole-3-carboxamide] | 0.00862 | 0.0898 |  | 54 |
| O=C(N[C@H]1COc2ccccc2-n2nnnc21)c1n[nH]c(Cc2ccccc2)n1 [Compound I-3, (R)-5-Benzyl-N-(4,5-dihydrobenzo[b]tetrazolo[1,5-d][1,4]oxazepin-4-yl)-1H-1,2,4-triazole-3-carboxamide] | 10 | 4.08 |  | 58.2 |
| Cn1nc2n(c1=O)-c1ccccc1CCC2NC(=O)c1ncn(Cc2c(Cl)cccc2Cl)n1 (racemic) [Compound I-60, (±)-1-(2,6-Dichlorobenzyl)-N-(2-methyl-1-oxo-2,4,5,6-tetrahydro-1H-benzo[f][1,2,4]triazolo[4,3-a]azepin-4-yl)-1H-1,2,4-triazole-3-carboxamide] | 10 | 35.8 |  | 1290 |
| O=C(NC1CCc2ccc(N3CC4(CCOCC4)C3)cc2-n2ccnc21)c1n[nH]c(Cc2ccccc2)n1 (racemic) [Compound I-84, (±)-N-(9-(7-Oxa-2-azaspiro[3.5]nonan-2-yl)-5,6-dihydro-4H-benzo[f]imidazo[1,2-a]azepin-4-yl)-5-benzyl-1H-1,2,4-triazole-3-carboxamide] | 0.00879 | 0.0386 | 119 |  |
| O=C(N[C@H]1COc2ccccc2-n2c1noc2=O)c1cc(Cc2ccccc2)on1 [Compound I-43, 5-benzyl-N-((4R)-1-oxo-4,5-dihydro-1H-benzo[b][1,2,4]oxadiazolo[4,3-d][1,4]oxazepin-4-yl)isoxazole-3-carboxamide] | 10 | 0.205 |  | 110 |
| O=C(N[C@H]1COc2ccccc2-n2c1noc2=O)c1n[nH]c(Cc2ccc(F)cc2F)n1 [Compound I-49, 5-(2,4-Difluorobenzyl)-N-((4R)-1-oxo-4,5-dihydro-1H-benzo[b][1,2,4]oxadiazolo[4,3-d][1,4]oxazepin-4-yl)-1H-1,2,4-triazole-3-carboxamide] | 10 | 0.717 |  | 347 |
| O=C(N[C@H]1CCc2ccc(N3CCC4(CCOCC4)CC3)cc2-n2ccnc21)c1n[nH]c(Cc2ccccc2)n1 [Compound I-83, (S)—N-(9-(3-Oxa-9-azaspiro[5.5]undecan-9-yl)-5,6-dihydro-4H-benzo[f]imidazo[1,2-a]azepin-4-yl)-5-benzyl-1H-1,2,4-triazole-3-carboxamide] | 0.00212 | 0.0043 |  | 43.5 |
| CC(C)(O)C#Cc1ccc2c(c1)-n1ccnc1C(NC(=O)n1cc(Cc3ccc(F)cc3)cn1)CC2 (racemic) [Compound I-93, (±)-4-(4-Fluorobenzyl)-N-(9-(3-hydroxy-3-methylbut-1-yn-1-yl)-5,6-dihydro-4H-benzo[f]imidazo[1,2-a]azepin-4-yl)-1H-pyrazole-1-carboxamide] | 0.00517 | 0.0371 |  | 40.4 |
| O=C(NC1CCc2ccc(N3CCC4(CCOCC4)CC3)cc2-n2c1noc2=O)c1n[nH]c(Cc2ccccc2)n1 (racemic) [Compound I-65, (±)-5-Benzyl-N-(1-oxo-9-(3-oxa-9-azaspiro[5.5]undecan-9-yl)-5,6-dihydro-1H,4H-benzo[f][1,2,4]oxadiazolo[4,3-a]azepin-4-yl)-1H-1,2,4-triazole-3-carboxamide] | 0.00326 | 0.0211 |  | 67.8 |
| O=C(N[C@H]1CSc2ccccc2-n2c1noc2=O)c1n[nH]c(Cc2ccc(F)cc2)n1 [Compound I-31, 5-(4-Fluorobenzyl)-N-((4R)-1-oxo-4,5-dihydro-1H-benzo[6][1,2,4]oxadiazolo[4,3-d][1,4]thiazepin-4-yl)-1H-1,2,4-triazole-3-carboxamide] | 5.01 | 0.014 |  | 15.8 |
| Cc1cnc2n1-c1ccccc1CCC2NC(=O)c1ncn(Cc2c(Cl)cccc2Cl)n1 (racemic) [Compound I-44, (±)-1-(2,6-Dichlorobenzyl)-N-(1-methyl-5,6-dihydro-4H-benzo[f]imidazo[1,2-a]azepin-4-yl)-1H-1,2,4-triazole-3-carboxamide] | 10 | 1.67 |  | 947 |
| O=C(NC1CCc2ccccc2-n2c(Cl)cnc21)c1n[nH]c(Cc2ccccc2)n1 (racemic) [Compound I-81, (±)-5-Benzyl-N-(1-chloro-5,6-dihydro-4H-benzo[f]imidazo[1,2-a]azepin-4-yl)-1H-1,2,4-triazole-3-carboxamide] | 10 | 4.25 |  | 517 |
| O=C(N[C@H]1CSc2ccccc2-n2c1noc2=O)c1ncn(Cc2ccc(F)cc2)n1 [Compound I-32, 1-(4-Fluorobenzyl)-N-((4R)-1-oxo-4,5-dihydro-1H-benzo[b][1,2,4]oxadiazolo[4,3-d][1,4]thiazepin-4-yl)-1H-1,2,4-triazole-3-carboxamide] | 0.000674 | 0.0016 |  | 13.3 |
| CC(C)(O)C#Cc1ccc2c(c1)-n1cnnc1C(NC(=O)c1n[nH]c(Cc3ccccc3)n1)CC2 (racemic) [Compound I-72, (±)-5-Benzyl-N-(9-(3-hydroxy-3-methylbut-1-yn-1-yl)-5,6-dihydro-4H-benzo[f][1,2,4]triazolo[4,3-a]azepin-4-yl)-1H-1,2,4-triazole-3-carboxamide] | 10 | 0.708 |  | 219 |
| O=C(N[C@H]1CSc2ccccc2-n2c1noc2=O)c1n[nH]c(Cc2ccccc2)n1 [Compound I-33, 5-Benzyl-N-((4R)-1-oxo-4,5-dihydro-1H-benzo[b][1,2,4]oxadiazolo[4,3-d][1,4]thiazepin-4-yl)-1H-1,2,4-triazole-3-carboxamide] | 0.00516 | 0.0056 |  | 12.5 |
| O=C(NC1CCc2ccccc2-n2cnnc21)c1cc(Oc2ccccc2)ccn1 (racemic) [Compound I-59, (±)-N-(5,6-Dihydro-4H-benzo[f][1,2,4]triazolo[4,3-a]azepin-4-yl)-4-phenoxypicolinamide] | 10 | 0.829 |  | 118 |

Source: patent US11667643B2, “RIP1K inhibitors” (priority 2020, dated 2023)
